From patent US12263177B2, “Biologically active ganoderma lucidum compounds and synthesis of anticancer derivatives; ergosterol peroxide probes for cellular localization” (priority 2019, dated 2025)
pEC50: −log10 of the molar value.

How the values were obtained:
HMEC = experiment: Cytotoxicity of EP probes via CTG assay, normal cells; type: cell-based; settings: 72 hr
Experimental: (§1) For the CTG assay, 3 or 4 replicate assays were conducted for each experimental condition, and a minimum of 3 independent experiments were conducted for cellular assays. The mean luminescence of each experimental treatment group was normalized as a percentage of the mean intensity of untreated controls. EC50 values (μM) were calculated by Pipeline Pilot Software (Accelrys, Enterprise Platform, CA, USA). EC50 values (μM) from the viability assay were calculated from dose response curve-fitting via non-linear regression by using GraphPad Prism (Version 7.0 San Diego, CA).

Propidium iodide assay = type: cell-based
Experimental: Efforts to address the specific target in breast cancer cellular models are disclosed. Thus, in the present disclosure, the EP-chemical probes were generated to study subcellular co-localization in order to recover its potential mechanism in breast cancer cell models. An efficient synthetic approach to EP and its analogues from ergosterol was developed. The resultant EP compounds were evaluated for cytotoxicity/apoptosis via CellTiterGlo assay, and propidium iodide assay.

MDA-MB-231 = experiment: Cytotoxicity of EP probes via CTG assay; type: cell-based, human; settings: 72 hr, read-out: MDA-MB231 EC50
Experimental: as §1

SUM-149 = experiment: Cytotoxicity of EP probes via CTG assay; type: cell-based, human; settings: 72 hr, read-out: SUM149 EC50
Experimental: as §1

[1] = system: MDA-MB-231, SUM-149, T47D; experiment: Cytotoxicity of EP analogues via CTG assay, comparison across cell lines; settings: 72 hr
Experimental: To better understand the structure-activity-relationship of EP, its core was modified at the C3 position of the steroid backbone. […] Both normal cell lines HMEC and BJ cells were also evaluated to determine therapeutic index.
Either 1×10^3-4.8×10^3 or 4×10^2-1.2×10^3 cells were seeded to each well of 96- or 384-well white polystyrene flat-bottomed plates (3610 or 8804BC, Corning) in 100 μL or 30 μL media per well, respectively. The concentrations used were experimentally determined to ensure logarithmic growth during the duration of the experiment and prevent adverse effects on cell growth by DMSO exposure. The plates were incubated at 37° C. in 5% CO2 for 24 h before treatment. Stock solutions of test compounds (10 mM in DMSO) in nine 3-fold serial dilutions were dispensed via pintool (Biomek). The final concentration of DMSO was 0.3% (v/v) in each well. The plates were incubated for 72 h at 37° C. in 5% CO2 and then quenched with CellTiter-Glo® reagent (50 μL/well in 96-well plate, 30 μL/well in 384-well plate) at RT. The positive controls included staurosporine (10 μM), gambogic acid (10 μM), and a toxic quinoline generated in-house. Plates were then incubated at RT for 20 min and centrifuged at 1000 rpm for 1 min. The cytotoxicity assay was performed by using the CellTiterGlo Luminescent Cell Viability Assay kit (G7570, Promega, Madison, WI) according to the manufacturer's instructions. Luminescence was recorded in an Envision plate reader (Perkin Elmer).

T47D = experiment: Cytotoxicity of EP probes via CTG assay; type: cell-based; settings: 72 hr
Experimental: as §1

[2] = system: MCF-7 breast cancer cells; experiment: Reactive oxygen species (ROS) measurement, CellROX; type: cell-based, human; settings: not statistically significant for the GLE compounds
Experimental: Live-cell CellROX® assays for oxidative stress detection were conducted to evaluate whether GA-01, ergosterol, 5-6-dihydroergosterol and EP trigger intrinsic apoptosis pathways by inducing ROS. […] Menadione or t-Butyl hydrogen peroxide (TBHP) were positive controls (FIGS. 7 and S5) and co-treated with N-acetyl cysteine (NAC) to confirm that the signal was due to ROS formation induced by the compound. […] Furthermore, the possibility of the endoperoxide motif to react with NAC, was assessed EP was incubated with NAC in DMSO for 24 h at 37° C. […] Thus, the ability of EP to induce ROS could potentially be via a different mechanism from that of TBHP in MCF-7 cells.
The mRuby-Mito-7 plasmid was obtained from Addgene (#55874 from Michael Davidson). A stable clone of MCF-7 was generated by using Fugene 6 (Roche) to transfect cells (2×10^5) with plasmid (2.0 μg) under neomycin selection. A stable cell line was selected by using G418 (300 μg/mL) for 2 weeks, sorted by flow cytometry, and maintained under G418 thereafter. Transfected MCF-7 cells were plated at a density of 2×10^4 cells/well in black 96-well clear bottom tissue culture plates and incubated overnight at 37° C. […] Fluorescence intensity was measured in a Clariostar® plate reader (BMG LABTECH, Cary, NC) at 535 nm.

Row | Compound | pEC50 (HMEC) | ability to induce apoptosis (Propidium iodide assay) | pEC50 (MDA-MB-231) | pEC50 (SUM-149) | cytotoxicity compared with parental compound 3 (in words) [1] | pEC50 (T47D) | ROS formation reduction when co-treated with NAC [2] [%]
1 | CC(C)C(C)C=CC(C)C1CCC2C1(C)CCC1C23C=CC2(CC(OC(=O)CCCCC4SCC5NC(=O)NC54)CCC12C)OO3 (stereo not shown) [3k] | < 4.85 | validated via propidium iodide assay | 5.00 | 5.40 | comparable cytotoxicity to the parental compound 3 | < 5.00 | –
2 | Cc1cc(C)n2c1C=C1C=CC(CCC(=O)OC3CCC4(C)C5CCC6(C)C(C(C)C=CC(C)C(C)C)CCC6C56C=CC4(C3)OO6)=[N+]1[B-]2(F)F (stereo not shown) [3m] | < 4.82 | validated via propidium iodide assay | 4.74 | 5.70 | comparable cytotoxicity to the parental compound 3 | 4.74 | –
3 | CC(C)(C)OO [TBHP, t-Butyl hydroperoxide] | – | – | – | – | – | – | ~50
